Source: the NIST ThermoML archive (doi:10.1007/s10765-007-0169-z)

What was measured:
[1] = for surface tension liquid-gas: Drop volume; for mass density: 101.33 kPa, Liquid, Pycnometric method
[2] = xn = mol fraction of the nth substance listed; conditions: Drop volume

CC(C)CCl [1-chloro-2-methylpropane]
[1]
Conditions | mass density [kg/m3] | surface tension liquid-gas [mN/m]
298.15 K | 871.13 | 21.8
313.15 K | – | 19.18

CC(C)CCl [1-chloro-2-methylpropane] + C1CCOC1
[2]
Conditions | surface tension liquid-gas [mN/m]
298.15 K, x2 = 0.0652 | 22.25
298.15 K, x2 = 0.1201 | 22.54
298.15 K, x2 = 0.2392 | 23.06
298.15 K, x2 = 0.3613 | 23.53
298.15 K, x2 = 0.4622 | 23.94
298.15 K, x2 = 0.5682 | 24.44
298.15 K, x2 = 0.6614 | 24.9
298.15 K, x2 = 0.7586 | 25.42
298.15 K, x2 = 0.8408 | 25.89
298.15 K, x2 = 0.9257 | 26.45
298.15 K, x2 = 0.9662 | 26.75
313.15 K, x2 = 0.0619 | 19.77
313.15 K, x2 = 0.1268 | 20.25
313.15 K, x2 = 0.2531 | 21
313.15 K, x2 = 0.359 | 21.53
313.15 K, x2 = 0.4722 | 22.06
313.15 K, x2 = 0.5669 | 22.51
313.15 K, x2 = 0.659 | 22.97
313.15 K, x2 = 0.7539 | 23.45
313.15 K, x2 = 0.8338 | 23.88
313.15 K, x2 = 0.9198 | 24.42
313.15 K, x2 = 0.9751 | 24.83

CC(C)CCl [1-chloro-2-methylpropane] + C1CCOCC1
[2]
Conditions | surface tension liquid-gas [mN/m]
298.15 K, x2 = 0.0483 | 22.18
298.15 K, x2 = 0.1067 | 22.55
298.15 K, x2 = 0.2075 | 23.09
298.15 K, x2 = 0.32 | 23.63
298.15 K, x2 = 0.4148 | 24.07
298.15 K, x2 = 0.519 | 24.58
298.15 K, x2 = 0.6219 | 25.11
298.15 K, x2 = 0.7194 | 25.65
298.15 K, x2 = 0.8079 | 26.15
298.15 K, x2 = 0.9077 | 26.72
298.15 K, x2 = 0.9602 | 27.04
313.15 K, x2 = 0.0377 | 19.55
313.15 K, x2 = 0.1032 | 20.11
313.15 K, x2 = 0.2167 | 20.92
313.15 K, x2 = 0.3226 | 21.57
313.15 K, x2 = 0.4213 | 22.13
313.15 K, x2 = 0.5302 | 22.74
313.15 K, x2 = 0.6241 | 23.27
313.15 K, x2 = 0.7134 | 23.78
313.15 K, x2 = 0.8148 | 24.37
313.15 K, x2 = 0.9051 | 24.89
313.15 K, x2 = 0.966 | 25.22

CCCCCl [1-chlorobutane]
[1]
Conditions | mass density [kg/m3] | surface tension liquid-gas [mN/m]
298.15 K | 880.69 | 23.29
313.15 K | – | 21.58

CCCCCl [1-chlorobutane] + C1CCOC1
[2]
Conditions | surface tension liquid-gas [mN/m]
298.15 K, x2 = 0.0526 | 23.45
298.15 K, x2 = 0.1121 | 23.62
298.15 K, x2 = 0.2436 | 23.98
298.15 K, x2 = 0.3549 | 24.29
298.15 K, x2 = 0.4671 | 24.65
298.15 K, x2 = 0.5624 | 25
298.15 K, x2 = 0.6678 | 25.41
298.15 K, x2 = 0.7575 | 25.79
298.15 K, x2 = 0.84 | 26.16
298.15 K, x2 = 0.9224 | 26.58
298.15 K, x2 = 0.9739 | 26.87
313.15 K, x2 = 0.0654 | 21.78
313.15 K, x2 = 0.1272 | 21.95
313.15 K, x2 = 0.25 | 22.28
313.15 K, x2 = 0.3654 | 22.59
313.15 K, x2 = 0.4658 | 22.89
313.15 K, x2 = 0.5586 | 23.2
313.15 K, x2 = 0.6569 | 23.56
313.15 K, x2 = 0.7489 | 23.92
313.15 K, x2 = 0.8401 | 24.3
313.15 K, x2 = 0.9272 | 24.69
313.15 K, x2 = 0.9663 | 24.88

CCCCCl [1-chlorobutane] + C1CCOCC1
[2]
Conditions | surface tension liquid-gas [mN/m]
298.15 K, x2 = 0.0421 | 23.43
298.15 K, x2 = 0.1082 | 23.65
298.15 K, x2 = 0.2121 | 24.02
298.15 K, x2 = 0.3174 | 24.41
298.15 K, x2 = 0.4245 | 24.82
298.15 K, x2 = 0.5222 | 25.21
298.15 K, x2 = 0.6243 | 25.63
298.15 K, x2 = 0.7209 | 26.04
298.15 K, x2 = 0.8105 | 26.43
298.15 K, x2 = 0.9103 | 26.88
298.15 K, x2 = 0.9655 | 27.13
313.15 K, x2 = 0.0319 | 21.69
313.15 K, x2 = 0.1092 | 21.95
313.15 K, x2 = 0.208 | 22.29
313.15 K, x2 = 0.3137 | 22.66
313.15 K, x2 = 0.4209 | 23.04
313.15 K, x2 = 0.5149 | 23.39
313.15 K, x2 = 0.6199 | 23.8
313.15 K, x2 = 0.717 | 24.19
313.15 K, x2 = 0.8126 | 24.59
313.15 K, x2 = 0.9067 | 24.99
313.15 K, x2 = 0.965 | 25.24

CC(C)(C)Cl [2-chloro-2-methylpropane]
[1]
Conditions | mass density [kg/m3] | surface tension liquid-gas [mN/m]
298.15 K | 836.45 | 18.9
313.15 K | – | 16.98

CC(C)(C)Cl [2-chloro-2-methylpropane] + C1CCOC1
[2]
Conditions | surface tension liquid-gas [mN/m]
298.15 K, x2 = 0.0664 | 19.32
298.15 K, x2 = 0.1332 | 19.74
298.15 K, x2 = 0.2532 | 20.51
298.15 K, x2 = 0.3652 | 21.26
298.15 K, x2 = 0.4851 | 22.11
298.15 K, x2 = 0.5768 | 22.81
298.15 K, x2 = 0.6804 | 23.66
298.15 K, x2 = 0.7747 | 24.51
298.15 K, x2 = 0.8446 | 25.2
298.15 K, x2 = 0.9372 | 26.23
298.15 K, x2 = 0.9656 | 26.58
313.15 K, x2 = 0.0427 | 16.98
313.15 K, x2 = 0.1236 | 17.22
313.15 K, x2 = 0.1853 | 17.54
313.15 K, x2 = 0.2856 | 18.22
313.15 K, x2 = 0.3852 | 18.94
313.15 K, x2 = 0.5033 | 19.9
313.15 K, x2 = 0.6055 | 20.75
313.15 K, x2 = 0.6963 | 21.55
313.15 K, x2 = 0.794 | 22.48
313.15 K, x2 = 0.89 | 23.53
313.15 K, x2 = 0.9446 | 24.25

CC(C)(C)Cl [2-chloro-2-methylpropane] + C1CCOCC1
[2]
Conditions | surface tension liquid-gas [mN/m]
298.15 K, x2 = 0.0332 | 19.18
298.15 K, x2 = 0.0955 | 19.68
298.15 K, x2 = 0.2242 | 20.68
298.15 K, x2 = 0.3219 | 21.37
298.15 K, x2 = 0.4336 | 22.17
298.15 K, x2 = 0.5374 | 22.97
298.15 K, x2 = 0.6269 | 23.69
298.15 K, x2 = 0.7173 | 24.48
298.15 K, x2 = 0.8149 | 25.41
298.15 K, x2 = 0.9089 | 26.36
298.15 K, x2 = 0.9418 | 26.71
313.15 K, x2 = 0.0734 | 17.35
313.15 K, x2 = 0.1038 | 17.5
313.15 K, x2 = 0.2093 | 18.14
313.15 K, x2 = 0.3169 | 18.9
313.15 K, x2 = 0.4363 | 19.8
313.15 K, x2 = 0.5116 | 20.41
313.15 K, x2 = 0.612 | 21.24
313.15 K, x2 = 0.7058 | 22.05
313.15 K, x2 = 0.8154 | 23.08
313.15 K, x2 = 0.9006 | 23.98
313.15 K, x2 = 0.9529 | 24.66

CCC(C)Cl (centres undefined) [2-chlorobutane]
[1]
Conditions | mass density [kg/m3] | surface tension liquid-gas [mN/m]
298.15 K | 867.37 | 21.93
313.15 K | – | 19.33

CCC(C)Cl (centres undefined) [2-chlorobutane] + C1CCOC1
[2]
Conditions | surface tension liquid-gas [mN/m]
298.15 K, x2 = 0.0427 | 21.96
298.15 K, x2 = 0.1259 | 22.24
298.15 K, x2 = 0.2478 | 22.71
298.15 K, x2 = 0.3589 | 23.19
298.15 K, x2 = 0.4628 | 23.68
298.15 K, x2 = 0.5654 | 24.19
298.15 K, x2 = 0.6678 | 24.74
298.15 K, x2 = 0.7513 | 25.22
298.15 K, x2 = 0.84 | 25.77
298.15 K, x2 = 0.9208 | 26.35
298.15 K, x2 = 0.9701 | 26.76
313.15 K, x2 = 0.0581 | 19.7
313.15 K, x2 = 0.124 | 20.12
313.15 K, x2 = 0.2442 | 20.84
313.15 K, x2 = 0.3595 | 21.47
313.15 K, x2 = 0.4761 | 22.05
313.15 K, x2 = 0.573 | 22.53
313.15 K, x2 = 0.6654 | 23
313.15 K, x2 = 0.7524 | 23.45
313.15 K, x2 = 0.836 | 23.94
313.15 K, x2 = 0.9209 | 24.49
313.15 K, x2 = 0.9663 | 24.81

CCC(C)Cl (centres undefined) [2-chlorobutane] + C1CCOCC1
[2]
Conditions | surface tension liquid-gas [mN/m]
298.15 K, x2 = 0.04 | 22.05
298.15 K, x2 = 0.1057 | 22.38
298.15 K, x2 = 0.2133 | 22.88
298.15 K, x2 = 0.3195 | 23.39
298.15 K, x2 = 0.4166 | 23.88
298.15 K, x2 = 0.5188 | 24.44
298.15 K, x2 = 0.6151 | 24.99
298.15 K, x2 = 0.7111 | 25.56
298.15 K, x2 = 0.8098 | 26.15
298.15 K, x2 = 0.9438 | 26.95
298.15 K, x2 = 0.9845 | 27.2
313.15 K, x2 = 0.0355 | 19.56
313.15 K, x2 = 0.1006 | 20.01
313.15 K, x2 = 0.2177 | 20.83
313.15 K, x2 = 0.3192 | 21.5
313.15 K, x2 = 0.4243 | 22.14
313.15 K, x2 = 0.5166 | 22.66
313.15 K, x2 = 0.5931 | 23.07
313.15 K, x2 = 0.7193 | 23.76
313.15 K, x2 = 0.8156 | 24.31
313.15 K, x2 = 0.9057 | 24.85
313.15 K, x2 = 0.991 | 25.34

C1CCOC1 [tetrahydrofuran]
[1]
Conditions | mass density [kg/m3] | surface tension liquid-gas [mN/m]
298.15 K | 881.95 | 27.04
313.15 K | – | 25.05

C1CCOCC1 [tetrahydropyran]
[1]
Conditions | mass density [kg/m3] | surface tension liquid-gas [mN/m]
298.15 K | 878.81 | 27.29
313.15 K | – | 25.39
